# Measurements: ChEMBL document CHEMBL5143550, “Thiol- and Disulfide-Containing Vancomycin Derivatives Against Bacterial Resistance and Biofilm Formation” (2021)
# Key:
# Format in all cases: functional
# [1] = system: Enterococcus faecalis; test: Antibacterial activity against VanB-resistant Enterococcus faecalis ATCC 51299 assessed as inhibition of colony formation in BHIG medium incubated for 24 hrs by resazurin assay
# [2] = system: Clostridioides difficile; test: Antibacterial activity against Clostridium difficile ATCC 43255 assessed as inhibition of bacterial growth by standard broth microdilution susceptibility method
# [3] = system: Staphylococcus aureus; test: Antibacterial activity against heterogenous vancomycin-intermediate Staphylococcus aureus ATCC NRS24 assessed as inhibition of bacterial growth by standard broth microdilution susceptibility method
# [4] = system: Enterococcus gallinarum; test: Antibacterial activity against VanC-resistant Enterococcus gallinarum ATCC 700221 assessed as inhibition of bacterial growth by standard broth microdilution susceptibility method
# [5] = system: Staphylococcus aureus; test: Antibacterial activity against methicillin-resistant Staphylococcus aureus ATCC 43300 assessed as inhibition of bacterial growth by standard broth microdilution susceptibility method
# [6] = system: Enterococcus faecalis; test: Antibiofilm activity against VanB-resistant Enterococcus faecalis ATCC 51299 assessed as inhibition of biofilm formation in BHIG medium incubated for 24 hrs by resazurin assay
# [7] = system: Enterococcus faecalis; test: Antibacterial activity against VanB-resistant Enterococcus faecalis ATCC 51299 assessed as inhibition of bacterial growth by standard broth microdilution susceptibility method
# [8] = system: Streptococcus pneumoniae; test: Antibacterial activity against […] assessed as inhibition of bacterial growth by standard broth microdilution susceptibility method
# [9] = system: Moraxella catarrhalis; test: Antibacterial activity against Moraxella catarrhalis ATCC 8193 assessed as inhibition of bacterial growth by standard broth microdilution susceptibility method
# [10] = system: Staphylococcus aureus; test: Antibacterial activity against Staphylococcus aureus ATCC 25923 assessed as inhibition of bacterial growth by standard broth microdilution susceptibility method
# [11] = system: Enterococcus faecalis; test: Antibacterial activity against VanB-resistant Enterococcus faecalis ATCC 51299 assessed as inhibition of bacterial growth in BHIG medium incubated for 24 hrs by resazurin assay
# [12] = system: Enterococcus faecium; test: Antibacterial activity against VanA-resistant Enterococcus faecium MMX0485 assessed as inhibition of bacterial growth by standard broth microdilution susceptibility method
# [13] = system: Staphylococcus aureus; test: Antibacterial activity against vancomycin-intermediate Staphylococcus aureus ATCC NRS1 assessed as inhibition of bacterial growth by standard broth microdilution susceptibility method
# [14] = system: Enterococcus faecalis; test: Antibiofilm activity against VanB-resistant Enterococcus faecalis ATCC 51299 assessed as inhibition of biofilm formation by measuring decrease in RFU in BHIG medium incubated for 24 hrs by resazurin assay
SMILES,Activity [1],MIC [2],MIC [3],MIC [4],MIC [5],MBIC [6],MIC [7],MIC [8],MIC [9],MIC [10],inhibition (INH) [11],MIC [12],MIC [13],inhibition (INH) [14]
CN[C@H](CC(C)C)C(=O)N[C@H]1C(=O)N[C@@H](CC(N)=O)C(=O)N[C@H]2C(=O)N[C@H]3C(=O)N[C@H](C(=O)N[C@H](C(=O)NCCSSCCNC(=O)CCS)c4cc(O)cc(O)c4-c4cc3ccc4O)[C@H](O)c3ccc(c(Cl)c3)Oc3cc2cc(c3O[C@@H]2O[C@H](CO)[C@@H](O)[C@H](O)[C@H]2O[C@H]2C[C@](C)(N)[C@H](O)[C@H](C)O2)Oc2ccc(cc2Cl)[C@H]1O,8 µg/mL,1 µg/mL,1 µg/mL,4 µg/mL,0.5 µg/mL,8 µg/mL,2 µg/mL,0.25 µg/mL,2 µg/mL,0.5 µg/mL,100%,8 µg/mL,1 µg/mL,97%
CN[C@H](CC(C)C)C(=O)N[C@H]1C(=O)N[C@@H](CC(N)=O)C(=O)N[C@H]2C(=O)N[C@H]3C(=O)N[C@H](C(=O)N[C@H](C(=O)NCCSSCCN)c4cc(O)cc(O)c4-c4cc3ccc4O)[C@H](O)c3ccc(c(Cl)c3)Oc3cc2cc(c3O[C@@H]2O[C@H](CO)[C@@H](O)[C@H](O)[C@H]2O[C@H]2C[C@](C)(N)[C@H](O)[C@H](C)O2)Oc2ccc(cc2Cl)[C@H]1O,16 µg/mL,0.5 µg/mL,1 µg/mL,8 µg/mL,1 µg/mL,16 µg/mL,8 µg/mL,≤ 0.03 µg/mL,> 32 µg/mL,1 µg/mL,98%,8 µg/mL,1 µg/mL,86%
CN[C@H](CC(C)C)C(=O)N[C@H]1C(=O)N[C@@H](CC(N)=O)C(=O)N[C@H]2C(=O)N[C@H]3C(=O)N[C@H](C(=O)N[C@H](C(=O)NCCCCCCCCS)c4cc(O)cc(O)c4-c4cc3ccc4O)[C@H](O)c3ccc(c(Cl)c3)Oc3cc2cc(c3O[C@@H]2O[C@H](CO)[C@@H](O)[C@H](O)[C@H]2O[C@H]2C[C@](C)(N)[C@H](O)[C@H](C)O2)Oc2ccc(cc2Cl)[C@H]1O,8 µg/mL,4 µg/mL,2 µg/mL,8 µg/mL,4 µg/mL,8 µg/mL,8 µg/mL,0.5 µg/mL,8 µg/mL,4 µg/mL,100%,2 µg/mL,2 µg/mL,98%
CCSSCCNC(=O)[C@H]1NC(=O)[C@H]2NC(=O)[C@H](NC(=O)[C@@H]3NC(=O)[C@H](CC(N)=O)NC(=O)[C@H](NC(=O)[C@@H](CC(C)C)NC)[C@H](O)c4ccc(c(Cl)c4)Oc4cc3cc(c4O[C@@H]3O[C@H](CO)[C@@H](O)[C@H](O)[C@H]3O[C@H]3C[C@](C)(N)[C@H](O)[C@H](C)O3)Oc3ccc(cc3Cl)[C@H]2O)c2ccc(O)c(c2)-c2c(O)cc(O)cc21,32 µg/mL,–,–,8 µg/mL,1 µg/mL,32 µg/mL,1 µg/mL,–,–,1 µg/mL,100%,–,–,100%
CN[C@H](CC(C)C)C(=O)N[C@H]1C(=O)N[C@@H](CC(N)=O)C(=O)N[C@H]2C(=O)N[C@H]3C(=O)N[C@H](C(=O)N[C@H](C(=O)NCCOCCNC(=O)CCCCC4CCSS4)c4cc(O)cc(O)c4-c4cc3ccc4O)[C@H](O)c3ccc(c(Cl)c3)Oc3cc2cc(c3O[C@@H]2O[C@H](CO)[C@@H](O)[C@H](O)[C@H]2O[C@H]2C[C@](C)(N)[C@H](O)[C@H](C)O2)Oc2ccc(cc2Cl)[C@H]1O (stereo partly drawn),8 µg/mL,–,–,8 µg/mL,2 µg/mL,8 µg/mL,4 µg/mL,–,–,4 µg/mL,100%,–,–,97%
